Test results from paper PMC8864165, “Functional Effects of ARV-1502 Analogs Against Bacterial Hsp70 and Implications for Antimicrobial Activity” (Frontiers in Chemistry, 2022).
≈ marks a conversion by molar mass, not a printed value. Square brackets hold non-standard residues; d marks the D form. Peptide text beside a SMILES is read from it. * marks the point of attachment. 5FAM = O=C1OC2(c3ccc(O)cc3Oc3cc(O)ccc32)c2ccc(C(=O)*)cc21; Ac6c = NC1(C(=O)O)CCCCC1

What was measured:
[1] = tested on: E. coli JW0013 ∆dnaK; settings: 25% MHB2, 37°C, 20 h
[2] = target: T1, E. coli DnaK (Escherichia coli, UniProt P0A6Y8); test: ATPase activity assay (malachite green), DnaK alone; format: biochemical; settings: ARV-1502 concentration series, plateau
T1 construct: His6-tag with TEV site ([…]) (N, cleaved yes); made in house; host or cells: E. coli (DE3) Rosetta pLysS
T1 sequence (P0A6Y8 whole entry): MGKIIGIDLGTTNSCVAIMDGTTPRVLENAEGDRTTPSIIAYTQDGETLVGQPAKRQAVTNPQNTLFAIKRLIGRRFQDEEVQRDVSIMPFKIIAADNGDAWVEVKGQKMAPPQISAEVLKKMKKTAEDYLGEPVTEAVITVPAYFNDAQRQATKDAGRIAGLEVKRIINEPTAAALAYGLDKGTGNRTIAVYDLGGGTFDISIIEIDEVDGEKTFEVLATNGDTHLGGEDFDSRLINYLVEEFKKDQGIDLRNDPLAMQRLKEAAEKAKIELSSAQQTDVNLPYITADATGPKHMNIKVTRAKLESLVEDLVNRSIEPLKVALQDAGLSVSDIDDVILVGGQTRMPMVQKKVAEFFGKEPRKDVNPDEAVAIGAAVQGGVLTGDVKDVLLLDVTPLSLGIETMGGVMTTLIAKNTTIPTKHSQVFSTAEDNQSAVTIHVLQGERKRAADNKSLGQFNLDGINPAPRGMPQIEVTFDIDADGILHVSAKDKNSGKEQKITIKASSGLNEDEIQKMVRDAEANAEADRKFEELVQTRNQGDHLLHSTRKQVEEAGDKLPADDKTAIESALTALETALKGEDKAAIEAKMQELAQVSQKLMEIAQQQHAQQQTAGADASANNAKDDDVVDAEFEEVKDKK
Description: (§1) ATPase activity of E. coli and S. aureus chaperones was studied in the presence of an AMP using a 384-well plate colorimetric assay ([Chang et al., 2008]; [Zahn et al., 2013]). […] Each sample was prepared in triplicates on the same plate. The reaction was started by addition of ATP dissolved in assay buffer (5 µL, 4 mmol/L) and the plate centrifuged (500 × g, 2 min; Allegra™ 21R, Beckmann Coulter, Krefeld, Germany) before incubated (37°C, 2 h). The released phosphate was quantified using an external phosphate dilution series (10–200 µmol/L KH2PO4 in assay buffer) prepared on each plate and treated equally as the samples. The reaction was stopped by adding assay buffer (80 µL) to all samples except the phosphate dilution series. […] After 15 min, the absorbance was recorded at 620 nm on the […]™ microplate reader. […]
(§2) The impact of ARV-1502 and its analogs on the ATPase activity of DnaK was investigated in 384-well plates using the malachite green absorbance assay, which quantitates phosphate (Pi) cleaved from ATP confirming for example the ATPase activity of DnaK. The established assay allowed a robust and reproducible quantitation of phosphate from 10 to 150 µmol/L and was easy to handle (Supplementary Figure S3) providing the intended high-throughput screening. […]

[3] = target: T2, S. aureus DnaK (Staphylococcus aureus, UniProt P99110); test: as above; format: biochemical; settings: ARV-1502 concentration series, plateau
T2 construct: His6-tag with TEV site ([…]) (N, cleaved yes); made in house; host or cells: E. coli (DE3) Rosetta pLysS
T2 sequence (P99110 whole entry): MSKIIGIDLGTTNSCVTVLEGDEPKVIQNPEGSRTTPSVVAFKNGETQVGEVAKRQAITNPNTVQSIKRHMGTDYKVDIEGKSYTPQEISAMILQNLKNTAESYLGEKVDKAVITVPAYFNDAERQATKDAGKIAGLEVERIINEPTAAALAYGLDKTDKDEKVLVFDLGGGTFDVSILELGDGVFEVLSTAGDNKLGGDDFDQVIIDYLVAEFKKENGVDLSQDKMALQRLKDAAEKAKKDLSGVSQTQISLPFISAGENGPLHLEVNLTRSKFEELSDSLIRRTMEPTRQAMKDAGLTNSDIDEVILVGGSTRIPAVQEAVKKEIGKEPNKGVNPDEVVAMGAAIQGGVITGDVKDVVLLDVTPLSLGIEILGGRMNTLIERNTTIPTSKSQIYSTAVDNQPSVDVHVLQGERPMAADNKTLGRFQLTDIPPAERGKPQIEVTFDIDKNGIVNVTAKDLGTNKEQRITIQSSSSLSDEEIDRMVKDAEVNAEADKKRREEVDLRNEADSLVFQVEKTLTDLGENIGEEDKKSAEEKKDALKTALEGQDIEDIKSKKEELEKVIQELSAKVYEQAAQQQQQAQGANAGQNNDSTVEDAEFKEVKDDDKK
Description: as §1, §2

[4] = target: S. aureus DnaJ (Staphylococcus aureus, UniProt P63971); test: Fluorescence polarization Kd with Cf-labeled peptide; settings: FP, * = upper plateau not reached, Kd only approximate
Sequence of S. aureus DnaJ (P63971 whole entry): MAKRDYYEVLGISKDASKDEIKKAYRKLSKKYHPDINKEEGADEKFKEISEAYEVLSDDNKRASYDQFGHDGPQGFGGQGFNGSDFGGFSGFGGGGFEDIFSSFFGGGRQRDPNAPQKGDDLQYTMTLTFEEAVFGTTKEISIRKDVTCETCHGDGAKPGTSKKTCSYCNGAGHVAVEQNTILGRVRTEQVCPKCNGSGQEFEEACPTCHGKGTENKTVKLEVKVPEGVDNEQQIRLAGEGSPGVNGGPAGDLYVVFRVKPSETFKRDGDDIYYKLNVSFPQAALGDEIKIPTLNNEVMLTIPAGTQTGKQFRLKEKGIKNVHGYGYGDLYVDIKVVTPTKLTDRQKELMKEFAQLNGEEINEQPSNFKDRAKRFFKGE
Description: (§3) Dissociation (Kd) and inhibitory constants (Ki) were measured using a previously reported protocol with slight modifications ([Krizsan et al., 2015]; [Kolano et al., 2020]). Briefly, black 384-well plates (flat bottom, Greiner Bio-One GmbH, Frickenhausen, Germany) were blocked with 0.5% (w/v) casein in phosphate buffered saline (PBS; 10 mmol/L Na2HPO4, 0.2 mmol/L KH2PO4, 137 mmol/L NaCl, 2.7 mmol/L KCl, pH 7.4) containing 0.05% (w/v) Tween® 20 (PBST) at 4°C overnight and washed three times with PBST. […] The 5 (6)-carboxyfluorescein-labeled peptide was added (20 μL/well, 40 nmol/L), incubated (2 h, 28°C, dark), and the fluorescence polarization recorded at an excitation wavelength (λ ex) of 485 nm and an emission wavelength (λem) of 535 nm using a […] ™ microplate reader (Beckman Coulter, Krefeld, Germany). Ki values were determined using a twofold dilution series of unlabeled peptide (20 µL/well) and DnaK (10 µL/well). The plate was incubated at 28°C in the dark for 90 min before the Cf-labeled peptides were added (10 µL/well, 80 nmol/L). After a second incubation (90 min, 28°C), the fluorescence polarization was recorded (λ ex = 485 nm, λ em = 535 nm). Dissociation and inhibitory constants were calculated by fitting the data with a variable slope parameter [y = min + (max- min)/(1+(x/Kd) ^−Hill slope)] using SigmaPlot 13 (Systat Software Inc., San Jose, CA, United States).

[5] = target: T3, E. coli DnaK/DnaJ/GrpE (Escherichia coli, UniProt P0A6Y8); test: Fluorescence polarization Kd with Cf-labeled peptide, full chaperone system; format: binding; settings: ratio of Kd
T3 construct: made in house; host or cells: E. coli (DE3) Rosetta pLysS
T3 sequence (P0A6Y8 whole entry): as the sequence (P0A6Y8 whole entry) above
Description: as §3

[6] = target: E. coli DnaJ (Escherichia coli, UniProt P08622); test: Fluorescence polarization Kd with Cf-labeled peptide; settings: E. coli proteins, ratio of Kd
Sequence of E. coli DnaJ (P08622 whole entry): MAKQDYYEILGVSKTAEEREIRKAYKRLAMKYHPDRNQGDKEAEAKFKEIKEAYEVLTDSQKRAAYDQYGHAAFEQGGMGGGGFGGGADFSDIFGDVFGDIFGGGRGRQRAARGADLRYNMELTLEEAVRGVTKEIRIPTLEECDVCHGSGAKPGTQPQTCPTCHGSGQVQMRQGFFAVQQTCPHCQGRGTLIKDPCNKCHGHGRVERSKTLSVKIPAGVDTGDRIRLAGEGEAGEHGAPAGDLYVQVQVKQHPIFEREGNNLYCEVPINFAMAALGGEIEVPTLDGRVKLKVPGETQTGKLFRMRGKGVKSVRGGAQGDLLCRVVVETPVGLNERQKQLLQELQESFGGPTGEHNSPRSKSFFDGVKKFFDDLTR
Description: as §3

[7] = target: T2, S. aureus DnaK; test: as above; format: binding
Description: as §3

[8] = target: E. coli GrpE (Escherichia coli, UniProt P09372); test: as above; settings: E. coli proteins, ratio of Kd
Sequence of E. coli GrpE (P09372 whole entry): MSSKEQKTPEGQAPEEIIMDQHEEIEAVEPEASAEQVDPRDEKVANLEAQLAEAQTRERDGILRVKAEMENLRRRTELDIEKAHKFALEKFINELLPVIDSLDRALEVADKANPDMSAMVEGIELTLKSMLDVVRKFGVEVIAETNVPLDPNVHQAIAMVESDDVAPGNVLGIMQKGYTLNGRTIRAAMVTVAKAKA
Description: as §3

[9] = target: T1, E. coli DnaK; format: binding
Description: The plate was incubated (90 min, 28°C, dark) and Cf-ARV-1502 (80 nmol/L; 10 µL/well) added. […] Each peptide was screened in duplicate. Control samples either lacked the unlabeled peptide (maximum) or contained Cf-ARV-1502 in buffer (minimum).
The quality of the experimental set up was evaluated by the Z′ factor ([Zhang et al., 1999]) (Supplementary Table S2). […] The obtained FP-values were normalized to the FP-values determined for lead sequence ARV-1502.

[10] = tested on: E. coli BW25113; settings: 25% MHB2, 7.5 × 10^6 cfu/mL, 37°C, 20 h
Description: Minimal inhibitory concentrations (MICs) were determined using a liquid broth micro dilution assay in sterile 96-well plates (polystyrene F-bottom, Greiner Bio-One GmbH) and a total volume of 100 μL per well. […] Overnight cultures of bacteria, i.e., E. coli BW25113 or S. aureus DSM 6247, grown in 25% MHB2 were diluted 30-fold in 25% MHB2. After an incubation period of 4 h (37°C, 200 rpm), cells were diluted to 1.5 × 10^7 cfu/mL, based on a McFarland test, and 50 μL were added to each well (final concentration of 7.5 × 10^6 cfu/mL per well). The plates were incubated (37°C, 20 h) and the optical density was determined at 595 nm using the […]™ microplate reader. The MIC was defined as the lowest peptide concentration preventing visible bacterial growth.

[11] = target: T2, S. aureus DnaK; test: FP peptide binding screening against Cf-ARV-1502; settings: screening: DnaK 16 µmol/L, unlabeled peptide 35 µmol/L, duplicate, below 1 = better than ARV-1502

CC(C)C[C@H](NC(=O)[C@H](Cc1ccc(O)cc1)NC(=O)[C@@H]1CCCN1C(=O)[C@H](CCCNC(=N)N)NC(=O)[C@@H]1CCCN1C(=O)[C@H](CCCCN)NC(=O)[C@H](CC(=O)O)NC(=O)[C@@H]1CCCN1C(=O)[C@H](CCCNC(=N)N)NC(=O)C1(N)CCCCC1)C(=O)N1CCC[C@H]1C(=O)N[C@@H](CCCNC(=N)N)C(=O)N1CCC[C@H]1C(=O)N[C@@H](CCCNC(=N)N)C(=O)N1CCC[C@H]1C(=O)N1CCC[C@H]1C(=O)N[C@@H](CCCNC(=N)N)C(=O)N1CCC[C@H]1C(=O)N[C@H](C(=O)N[C@@H](CCCNC(=N)N)C(N)=O)C(C)C [ARV-1502] (H-[Ac6c]RPDKPRPYLPRPRPPRPVR-NH2)
MIC, E. coli JW0013 ∆dnaK [1]: 4 to 8 µg/mL
increase of intrinsic ATPase activity of E. coli DnaK [2]: ~250%
stimulation of intrinsic ATPase activity of S. aureus DnaK [3]: 50%

CC(C)C[C@H](NC(=O)[C@H](Cc1ccc(O)cc1)NC(=O)[C@@H]1CCCN1C(=O)[C@H](CCCNC(=N)N)NC(=O)[C@@H]1CCCN1C(=O)[C@H](CCCCN)NC(=O)[C@H](CC(=O)O)NC(=O)[C@@H]1CCCN1C(=O)[C@H](CCCNC(=N)N)NC(=O)C1(NC(=O)c2ccc3c(c2)C(=O)OC32c3ccc(O)cc3Oc3cc(O)ccc32)CCCCC1)C(=O)N1CCC[C@H]1C(=O)N[C@@H](CCCNC(=N)N)C(=O)N1CCC[C@H]1C(=O)N[C@@H](CCCNC(=N)N)C(=O)N1CCC[C@H]1C(=O)N1CCC[C@H]1C(=O)N[C@@H](CCCNC(=N)N)C(=O)N1CCC[C@H]1C(=O)N[C@H](C(=O)N[C@@H](CCCNC(=N)N)C(N)=O)C(C)C [Cf-ARV-1502] (5FAM-[Ac6c]RPDKPRPYLPRPRPPRPVR-NH2)
Kd, S. aureus DnaJ [4]: no fit
fold higher Kd for E. coli DnaK/DnaJ/GrpE-system than for DnaK alone [5]: 15 fold
fold weaker binding to DnaJ than to DnaK [6]: ~150 fold
times weaker binding to S. aureus DnaK than to E. coli DnaK ([7]; ratio of Kd): around 100 times
fold weaker binding to GrpE than to DnaK [8]: ~1,000 fold

CC(C)C[C@H](NC(=O)[C@H](Cc1ccc(O)cc1)NC(=O)[C@@H]1CCCN1C(=O)[C@H](CCCNC(=N)N)NC(=O)[C@@H]1CCCN1C(=O)[C@H](CCCCN)NC(=O)[C@H](CCCCN)NC(=O)[C@@H]1CCCN1C(=O)[C@H](CCCNC(=N)N)NC(=O)C1(N)CCCCC1)C(=O)N1CCC[C@H]1C(=O)N[C@@H](CC(C)C)C(=O)N1CCC[C@H]1C(=O)N[C@@H](CCCNC(=N)N)C(=O)N1CCC[C@H]1C(=O)N1CCC[C@H]1C(=O)N[C@@H](CCCNC(=N)N)C(=O)N1CCC[C@H]1C(=O)N[C@H](C(=O)N[C@@H](CCCNC(=N)N)C(N)=O)C(C)C [compound 45] (H-[Ac6c]RPKKPRPYLPLPRPPRPVR-NH2)
DnaK binding in the screening, in words ([9]; FP screening, DnaK variant not stated at the place): best binding
MIC, E. coli JW0013 ∆dnaK [1]: >128 µg/mL
MIC, E. coli BW25113 [10]: >128 µg/mL

CC(C)C[C@H](NC(=O)[C@H](Cc1ccc(O)cc1)NC(=O)[C@@H]1CCCN1C(=O)[C@H](CCCNC(=N)N)NC(=O)[C@@H]1CCCN1C(=O)[C@H](Cc1ccccc1)NC(=O)[C@H](Cc1ccccc1)NC(=O)[C@@H]1CCCN1C(=O)[C@H](CCCNC(=N)N)NC(=O)C1(N)CCCCC1)C(=O)N1CCC[C@H]1C(=O)N[C@@H](CC(C)C)C(=O)N1CCC[C@H]1C(=O)N[C@@H](CCCNC(=N)N)C(=O)N1CCC[C@H]1C(=O)N1CCC[C@H]1C(=O)N[C@@H](CCCNC(=N)N)C(=O)N1CCC[C@H]1C(=O)N[C@H](C(=O)N[C@@H](CCCNC(=N)N)C(N)=O)C(C)C [peptide 102] (H-[Ac6c]RPFFPRPYLPLPRPPRPVR-NH2)
binding to E. coli DnaK, FP-value normalized to ARV-1502 [9]: best binders
binding to S. aureus DnaK, FP-value normalized to ARV-1502 [11]: best binders
MIC, E. coli JW0013 ∆dnaK [1]: 32 µg/mL (≈ 12.9 µM)
fold lower Kd than lead structure ARV-1502, S. aureus DnaK ([7]; ratio of Kd of Cf-labeled peptides): 20 fold
